{"source": "patent US9067943B2", "about": "“[1,2,3]triazolo[4,5-D]pyrimidine derivatives” (priority 2011, dated 2015)", "key": {"[1]": {"biological_target": "T1, human CB1 receptors (Homo sapiens, UniProt P21554)", "T1 construct": "expressed in transfected cells; host or cells: CHO cells", "T1 sequence (P21554 whole entry)": "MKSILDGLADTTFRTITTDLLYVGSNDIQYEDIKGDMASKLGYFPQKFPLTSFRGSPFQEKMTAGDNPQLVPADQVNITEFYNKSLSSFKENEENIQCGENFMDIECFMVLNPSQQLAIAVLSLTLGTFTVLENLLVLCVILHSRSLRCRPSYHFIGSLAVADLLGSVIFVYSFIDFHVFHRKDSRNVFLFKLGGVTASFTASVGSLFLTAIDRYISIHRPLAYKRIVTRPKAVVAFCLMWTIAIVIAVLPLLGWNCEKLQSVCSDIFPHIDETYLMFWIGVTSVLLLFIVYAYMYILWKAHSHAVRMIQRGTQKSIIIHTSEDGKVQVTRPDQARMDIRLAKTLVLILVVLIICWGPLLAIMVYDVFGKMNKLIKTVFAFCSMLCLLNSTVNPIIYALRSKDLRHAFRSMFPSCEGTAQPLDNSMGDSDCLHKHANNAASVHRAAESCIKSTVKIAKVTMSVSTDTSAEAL", "experiment": "cAMP assay", "assay_type": "cell-based", "how_it_was_run": "(§1)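 CHO cells expressing human CB1 or CB2 were preincubated 30 min at 30 °C in Krebs Ringer bicarbonate buffer with 1 mM IBMX, then exposed to compounds for 30 min at 30 °C. cAMP was measured by time-resolved FRET against a cAMP standard curve, and EC50 values were derived.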"}, "[2]": {"biological_target": "T2, human CB2 receptors (Homo sapiens, UniProt P34972)", "T2 construct": "expressed in transfected cells; host or cells: CHO cells", "T2 sequence (P34972 whole entry)": "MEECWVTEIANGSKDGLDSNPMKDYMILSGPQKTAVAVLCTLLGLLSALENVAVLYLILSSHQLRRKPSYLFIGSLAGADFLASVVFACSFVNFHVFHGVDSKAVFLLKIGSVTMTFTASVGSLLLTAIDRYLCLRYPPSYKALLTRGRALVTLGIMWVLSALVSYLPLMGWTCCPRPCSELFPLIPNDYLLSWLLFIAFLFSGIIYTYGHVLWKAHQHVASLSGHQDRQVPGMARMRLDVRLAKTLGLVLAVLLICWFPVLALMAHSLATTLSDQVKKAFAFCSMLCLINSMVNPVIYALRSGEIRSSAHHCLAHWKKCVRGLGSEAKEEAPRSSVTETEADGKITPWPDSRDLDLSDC", "experiment": "cAMP assay", "assay_type": "cell-based", "how_it_was_run": "as §1"}, "[3]": {"conditions": "functional cAMP assay, CHO cells expressing human CB2, read-out: human CB2 EC50"}}, "note": "Read-outs that look alike come from different tables or passages of the source.", "data": [{"smiles": "CC(C)(C)c1nc(N2CC[C@@](C)(O)C2)c2nn(CCC(F)(F)F)nc2n1", "note": "[Example 132-b, (R)-1-[5-tert-Butyl-2-(3,3,3-trifluoro-propyl)-2H-[1,2,3]triazolo[4,5-d]pyrimidin-7-yl]-3-methyl-pyrrolidin-3-ol]", "values": [{"measurement": "EC50", "setting": "[1]", "value": "> 10000", "unit": "nM"}, {"measurement": "EC50", "setting": "[2]", "value": 69.8, "unit": "nM"}]}, {"smiles": "CC(C)(C)c1nc(N2CC[C@](C)(O)C2)c2nn(Cc3nnnn3C3CC3)nc2n1", "note": "[Example 133-a, (S)-1-[5-tert-Butyl-2-(1-cyclopropyl-1H-tetrazol-5-ylmethyl)-2H-[1,2,3]triazolo[4,5-d]pyrimidin-7-yl]-3-methyl-pyrrolidin-3-ol]", "values": [{"measurement": "EC50", "setting": "[1]", "value": "> 10000", "unit": "nM"}, {"measurement": "EC50", "setting": "[2]; [3]", "value": 126, "unit": "nM"}]}, {"smiles": "CC(C)(C)c1nc(N2CC[C@@](C)(O)C2)c2nn(Cc3nnnn3C3CC3)nc2n1", "note": "[Example 133-b, (R)-1-[5-tert-Butyl-2-(1-cyclopropyl-1H-tetrazol-5-ylmethyl)-2H-[1,2,3]triazolo[4,5-d]pyrimidin-7-yl]-3-methyl-pyrrolidin-3-ol]", "values": [{"measurement": "EC50", "setting": "[1]", "value": "> 10000", "unit": "nM"}, {"measurement": "EC50", "setting": "[2]; [3]", "value": 547, "unit": "nM"}]}, {"smiles": "CC(=O)N[C@H]1CCN(c2nc(OCC(C)(C)C)nc3nn(Cc4ccccc4Cl)nc23)C1", "note": "[Example 134, N—{(S)-1-[2-(2-Chloro-benzyl)-5-(2,2-dimethyl-propoxy)-2H-[1,2,3]triazolo[4,5-d]pyrimidin-7-yl]-pyrrolidin-3-yl}-acetamide]", "values": [{"measurement": "EC50", "setting": "[1]", "value": "> 10000", "unit": "nM"}, {"measurement": "EC50", "setting": "[2]; [3]", "value": 682, "unit": "nM"}]}, {"smiles": "CC(=O)N[C@H]1CCN(c2nc(OCC(C)(C)C)nc3nn(Cc4ncccc4Cl)nc23)C1", "note": "[Example 135, N—{(S)-1-[2-(3-Chloro-pyridin-2-ylmethyl)-5-(2,2-dimethyl-propoxy)-2H-[1,2,3]triazolo[4,5-d]pyrimidin-7-yl]-pyrrolidin-3-yl}-acetamide]", "values": [{"measurement": "EC50", "setting": "[1]", "value": "> 10000", "unit": "nM"}, {"measurement": "EC50", "setting": "[2]; [3]", "value": 606, "unit": "nM"}]}, {"smiles": "CC(C)(C)Nc1nc(N2CCC(F)(F)C2)c2nn(Cc3ccccc3C(F)(F)F)nc2n1", "note": "[Example 136, tert-Butyl-[7-(3,3-difluoro-pyrrolidin-1-yl)-2-(2-trifluoromethyl-benzyl)-2H-[1,2,3]triazolo[4,5-d]pyrimidin-5-yl]-amine]", "values": [{"measurement": "EC50", "setting": "[1]", "value": "> 10000", "unit": "nM"}, {"measurement": "EC50", "setting": "[2]", "value": 35, "unit": "nM"}]}, {"smiles": "CC(C)(C)Nc1nc(N2CCC(F)(F)C2)c2nn(Cc3ccccc3S(C)(=O)=O)nc2n1", "note": "[Example 137, tert-Butyl-[7-(3,3-difluoro-pyrrolidin-1-yl)-2-(2-methanesulfonyl-benzyl)-2H-[1,2,3]triazolo[4,5-d]pyrimidin-5-yl]-amine]", "values": [{"measurement": "EC50", "setting": "[1]", "value": "> 10000", "unit": "nM"}, {"measurement": "EC50", "setting": "[2]", "value": 5.3, "unit": "nM"}]}, {"smiles": "CC(C)(C)Nc1nc(N2CCC(F)(F)C2)c2nn(Cc3ncccc3Cl)nc2n1", "note": "[Example 138, tert-Butyl-[2-(3-chloro-pyridin-2-ylmethyl)-7-(3,3-difluoro-pyrrolidin-1-yl)-2H-[1,2,3]triazolo[4,5-d]pyrimidin-5-yl]-amine]", "values": [{"measurement": "EC50", "setting": "[1]", "value": "> 10000", "unit": "nM"}, {"measurement": "EC50", "setting": "[2]", "value": 54, "unit": "nM"}]}, {"smiles": "Cn1nnnc1Cn1nc2nc(NC(C)(C)C)nc(N3CCC(F)(F)C3)c2n1", "note": "[Example 139, tert-Butyl-[7-(3,3-difluoro-pyrrolidin-1-yl)-2-(1-methyl-1H-tetrazol-5-ylmethyl)-2H-[1,2,3]triazolo[4,5-d]pyrimidin-5-yl]-amine]", "values": [{"measurement": "EC50", "setting": "[1]", "value": "> 10000", "unit": "nM"}, {"measurement": "EC50", "setting": "[2]", "value": 28.1, "unit": "nM"}]}, {"smiles": "Cc1nonc1Cn1nc2nc(NC(C)(C)C)nc(N3CCC(F)(F)C3)c2n1", "note": "[Example 140, tert-Butyl-[7-(3,3-difluoro-pyrrolidin-1-yl)-2-(4-methyl-furazan-3-ylmethyl)-2H-[1,2,3]triazolo[4,5-d]pyrimidin-5-yl]-amine]", "values": [{"measurement": "EC50", "setting": "[1]", "value": "> 10000", "unit": "nM"}, {"measurement": "EC50", "setting": "[2]", "value": 6.1, "unit": "nM"}]}, {"smiles": "CC(=O)N[C@H]1CCN(c2nc(O[C@@H](C)C(F)(F)F)nc3nn(Cc4ccccc4Cl)nc23)C1", "note": "[Example 141, N—{(S)-1-[2-(2-Chloro-benzyl)-5-((S)-2,2,2-trifluoro-1-methyl-ethoxy)-2H-[1,2,3]triazolo[4,5-d]pyrimidin-7-yl]-pyrrolidin-3-yl}-acetamide]", "values": [{"measurement": "EC50", "setting": "[1]", "value": "> 10000", "unit": "nM"}, {"measurement": "EC50", "setting": "[2]; [3]", "value": 1150, "unit": "nM"}]}, {"smiles": "CC(=O)N[C@H]1CCN(c2nc(O[C@@H](C)C(F)(F)F)nc3nn(Cc4ccccc4C(F)(F)F)nc23)C1", "note": "[Example 142, N—{(S)-1-[2-(2-Trifluoromethyl-benzyl)-5-((S)-2,2,2-trifluoro-1-methyl-ethoxy)-2H-[1,2,3]triazolo[4,5-d]pyrimidin-7-yl]-pyrrolidin-3-yl}-acetamide]", "values": [{"measurement": "EC50", "setting": "[1]", "value": "> 10000", "unit": "nM"}, {"measurement": "EC50", "setting": "[2]; [3]", "value": 1110, "unit": "nM"}]}, {"smiles": "CC(=O)N[C@H]1CCN(c2nc(O[C@@H](C)C(F)(F)F)nc3nn(Cc4ccccc4S(C)(=O)=O)nc23)C1", "note": "[Example 143, N—{(S)-1-[2-(2-Methanesulfonyl-benzyl)-5-((S)-2,2,2-trifluoro-1-methyl-ethoxy)-2H-[1,2,3]triazolo[4,5-d]pyrimidin-7-yl]-pyrrolidin-3-yl}-acetamide]", "values": [{"measurement": "EC50", "setting": "[1]", "value": "> 10000", "unit": "nM"}, {"measurement": "EC50", "setting": "[2]; [3]", "value": 1730, "unit": "nM"}]}, {"smiles": "CC(=O)N[C@H]1CCN(c2nc(NC(C)(C)C)nc3nn(Cc4ccccc4Cl)nc23)C1", "note": "[Example 144, N—{(S)-1-[5-tert-Butylamino-2-(2-chloro-benzyl)-2H-[1,2,3]triazolo[4,5-d]pyrimidin-7-yl]-pyrrolidin-3-yl}-acetamide]", "values": [{"measurement": "EC50", "setting": "[1]", "value": "> 10000", "unit": "nM"}, {"measurement": "EC50", "setting": "[2]; [3]", "value": 1950, "unit": "nM"}]}, {"smiles": "Cn1nnnc1Cn1nc2nc(NC(C)(C)C)nc(N3CC[C@H](O)C3)c2n1", "note": "[Example 145, (S)-1-[5-tert-Butylamino-2-(1-methyl-1H-tetrazol-5-ylmethyl)-2H-[1,2,3]triazolo[4,5-d]pyrimidin-7-yl]-pyrrolidin-3-ol]", "values": [{"measurement": "EC50", "setting": "[1]", "value": "> 10000", "unit": "nM"}, {"measurement": "EC50", "setting": "[2]; [3]", "value": 1090, "unit": "nM"}]}]}
